Like-named read-outs stand apart in the source and are kept apart here.
Assays:
Assay type in all cases: cell-based
Pseudomonas sp. = experiment: Serial twofold agar dilution (Mueller-Hinton agar), Pseudomonas sp.
Method in brief: (§1)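 Agar dilution MIC testing is done on Mueller-Hinton medium across twofold concentration steps, with Steers' apparatus used for inoculation. Strains come from a 31-organism screening panel; P. aeruginosa is also tested across 61 isolates.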

P. vulgaris = experiment: Serial twofold agar dilution (Mueller-Hinton agar), P. vulgaris
Method in brief: as §1

S. marcescens = experiment: Serial twofold agar dilution (Mueller-Hinton agar), S. marcescens; conditions: Serratia marcescens
Method in brief: as §1

P. mirabilis = experiment: Serial twofold agar dilution (Mueller-Hinton agar), P. mirabilis; conditions: Proteus mirabilis, P. mirabilis A9900, Mueller-Hinton agar, read-out: MIC
Method in brief: as §1

S. aureus = experiment: Serial twofold agar dilution (Mueller-Hinton agar), S. aureus; conditions: Staphylococcus aureus
Method in brief: as §1

Klebsiella sp. = experiment: Serial twofold agar dilution (Mueller-Hinton agar), Klebsiella sp.; conditions: Klebsiella sp. A20452, Mueller-Hinton agar
Method in brief: as §1

Pseudomonas aeruginosa = experiment: Serial twofold agar dilution (Mueller-Hinton agar), P. aeruginosa; conditions: for MIC: Pseudomonas aeruginosa
Method in brief: as §1

CC1(C)S[C@@H]2[C@H](NC(=O)[C@H](NC(=O)c3cnc4ccc(O)nn4c3=O)c3ccccc3)C(=O)N2[C@H]1C(=O)O [BB-P598, sodium 6-[D-(-)-α-phenyl-α-(7-hydroxy-4-oxo-4H-pyrimido[1,2-b]pyridazin-3-ylcarboxamido)acetamido]penicillanate]
6.3 µg/mL: MIC (P. mirabilis; Table 8) | MIC (S. aureus; S. aureus BX-1633 A9606, Table 1, read-out: MIC) | MIC (S. aureus; S. aureus BX-1633 A20240, Table 1, read-out: MIC) | MIC (Pseudomonas aeruginosa; ATCC19660, Pa-14 ATCC 19660 A20325, Mueller-Hinton agar, Table 9, read-out: MIC) | MIC (Pseudomonas aeruginosa; GN4925, Pa-45 GN4925, Mueller-Hinton agar, Table 2, read-out: MIC) | MIC (Pseudomonas aeruginosa; GN4925, Pa-45 GN 4925, Mueller-Hinton agar, Table 9, read-out: MIC) | MIC (Pseudomonas aeruginosa; P. aeruginosa A20717, Mueller-Hinton agar, Table 1, read-out: MIC) | MIC (Pseudomonas aeruginosa; P. aeruginosa A20717, Mueller-Hinton agar, Table 8, read-out: MIC) | MIC (Pseudomonas aeruginosa; Pa-1 D15, Mueller-Hinton agar, Table 2, read-out: MIC) | MIC (Pseudomonas aeruginosa; Pa-1 D15, Mueller-Hinton agar, Table 9, read-out: MIC) | MIC (Pseudomonas aeruginosa; Pa-4 H9 D113 A21295, Mueller-Hinton agar, Table 2, read-out: MIC) | MIC (Pseudomonas aeruginosa; Pa-7 A9843, Mueller-Hinton agar, Table 2, read-out: MIC) | MIC (Pseudomonas aeruginosa; Pa-11 A20616, Mueller-Hinton agar, Table 9, read-out: MIC) | MIC (Pseudomonas aeruginosa; Pa-12 A20653, Mueller-Hinton agar, Table 2, read-out: MIC) | MIC (Pseudomonas aeruginosa; Pa-12 A20653, Mueller-Hinton agar, Table 9, read-out: MIC) | MIC (Pseudomonas aeruginosa; Pa-15 A20717, Mueller-Hinton agar, Table 2, read-out: MIC) | MIC (Pseudomonas aeruginosa; Pa-20 A20325, Mueller-Hinton agar, Table 2, read-out: MIC) | MIC (Pseudomonas aeruginosa; Pa-23 A20741, Mueller-Hinton agar, Table 2, read-out: MIC) | MIC (Pseudomonas aeruginosa; Pa-28 CPH10527/72, Mueller-Hinton agar, Table 2, read-out: MIC)
3.1 µg/mL: MIC (Pseudomonas aeruginosa; GN315, Pa-27 GN315 A21294, Mueller-Hinton agar, Table 2, read-out: MIC) | MIC (Pseudomonas aeruginosa; P. aeruginosa A9843, Mueller-Hinton agar, Table 1, read-out: MIC) | MIC (Pseudomonas aeruginosa; P. aeruginosa A9843, Mueller-Hinton agar, Table 8, read-out: MIC) | MIC (Pseudomonas aeruginosa; Pa-2 V.A A9923, Mueller-Hinton agar, Table 9, read-out: MIC) | MIC (Pseudomonas aeruginosa; Pa-2 VA A9923, Mueller-Hinton agar, Table 2, read-out: MIC) | MIC (Pseudomonas aeruginosa; Pa-3 1449 V.A A9930, Mueller-Hinton agar, Table 9, read-out: MIC) | MIC (Pseudomonas aeruginosa; Pa-4 H9, D113 A21295, Mueller-Hinton agar, Table 9, read-out: MIC) | MIC (Pseudomonas aeruginosa; Pa-5 M4865KC A15150, Mueller-Hinton agar, Table 2, read-out: MIC) | MIC (Pseudomonas aeruginosa; Pa-11 A20616, Mueller-Hinton agar, Table 2, read-out: MIC) | MIC (Pseudomonas aeruginosa; Pa-14 A20325, Mueller-Hinton agar, Table 2, read-out: MIC) | MIC (Pseudomonas aeruginosa; Pa-17 H6 D114, Mueller-Hinton agar, Table 2, read-out: MIC) | MIC (Pseudomonas aeruginosa; Pa-18 H8 D121, Mueller-Hinton agar, Table 2, read-out: MIC) | MIC (Pseudomonas aeruginosa; Pa-20 A20325, Mueller-Hinton agar, Table 9, read-out: MIC) | MIC (Pseudomonas aeruginosa; Pa-21 A20601, Mueller-Hinton agar, Table 2, read-out: MIC) | MIC (Pseudomonas aeruginosa; Pa-21 A20601, Mueller-Hinton agar, Table 9, read-out: MIC) | MIC (Pseudomonas aeruginosa; Pa-23 A20741, Mueller-Hinton agar, Table 9, read-out: MIC) | MIC (Pseudomonas aeruginosa; Pa-28 C.P.H. 10527/72, Mueller-Hinton agar, Table 9, read-out: MIC) | MIC (Pseudomonas aeruginosa; Pa-29 D122, Mueller-Hinton agar, Table 2, read-out: MIC) | MIC (Pseudomonas aeruginosa; Pa-29 D122, Mueller-Hinton agar, Table 9, read-out: MIC) | MIC (Pseudomonas aeruginosa; Pa-30 A20600, Mueller-Hinton agar, Table 2, read-out: MIC) | MIC (Pseudomonas aeruginosa; Pa-32 A20595, Mueller-Hinton agar, Table 2, read-out: MIC) | MIC (Pseudomonas aeruginosa; Pa-32 A20595, Mueller-Hinton agar, Table 9, read-out: MIC)
4.2 µg/mL: MIC (Pseudomonas aeruginosa; 61 strains of P. aeruginosa, Table 2, read-out: Geometric mean of MIC)
3.5 µg/mL: MIC (Pseudomonas aeruginosa; 61 strains of P. aeruginosa, Table 9, read-out: Geometric mean of MIC)
0.2 µg/mL: MIC (P. mirabilis; Table 1)
0.8 µg/mL: MIC (Pseudomonas aeruginosa; P. aeruginosa A15150, Mueller-Hinton agar, Table 1, read-out: MIC) | MIC (Pseudomonas aeruginosa; Pa-16 #130 A20718, Mueller-Hinton agar, Table 2, read-out: MIC) | MIC (Pseudomonas aeruginosa; Pa-19 A20229, Mueller-Hinton agar, Table 9, read-out: MIC) | MIC (Pseudomonas aeruginosa; Pa-31 A20594, Mueller-Hinton agar, Table 2, read-out: MIC)
100 µg/mL: MIC (S. marcescens; S. marcescens A20019, Table 1) | MIC (S. aureus; S. aureus BX-1633 A15097, Table 1, read-out: MIC) | MIC (Pseudomonas aeruginosa; Pa-10 A21479, Mueller-Hinton agar, Table 9, read-out: MIC) | MIC (Pseudomonas aeruginosa; Pa-24 A20896, Mueller-Hinton agar, Table 9, read-out: MIC)
1.6 µg/mL: MIC (Pseudomonas sp.; Pseudomonas sp. A20358, Table 1, read-out: MIC) | MIC (Pseudomonas sp.; Pseudomonas sp. A20358, Table 8) | MIC (S. aureus; S. aureus Smith A9537, Table 1, read-out: MIC) | MIC (S. aureus; S. aureus Smith A9537, Table 8, read-out: MIC) | MIC (Pseudomonas aeruginosa; GN315, Pa-27 GN315 A21294, Mueller-Hinton agar, Table 9, read-out: MIC) | MIC (Pseudomonas aeruginosa; P. aeruginosa A9930, Mueller-Hinton agar, Table 1, read-out: MIC) | MIC (Pseudomonas aeruginosa; P. aeruginosa A9930, Mueller-Hinton agar, Table 8, read-out: MIC) | MIC (Pseudomonas aeruginosa; P. aeruginosa A15150, Mueller-Hinton agar, Table 8, read-out: MIC) | MIC (Pseudomonas aeruginosa; P. aeruginosa A20229, Mueller-Hinton agar, Table 1, read-out: MIC) | MIC (Pseudomonas aeruginosa; Pa-3 1449VA A9930, Mueller-Hinton agar, Table 2, read-out: MIC) | MIC (Pseudomonas aeruginosa; Pa-5 M4865, K.C A15150, Mueller-Hinton agar, Table 9, read-out: MIC) | MIC (Pseudomonas aeruginosa; Pa-17 H6, D114, Mueller-Hinton agar, Table 9, read-out: MIC) | MIC (Pseudomonas aeruginosa; Pa-18 H8, D121, Mueller-Hinton agar, Table 9, read-out: MIC) | MIC (Pseudomonas aeruginosa; Pa-19 A20229, Mueller-Hinton agar, Table 2, read-out: MIC) | MIC (Pseudomonas aeruginosa; Pa-25 A20897, Mueller-Hinton agar, Table 2, read-out: MIC) | MIC (Pseudomonas aeruginosa; Pa-25 A20897, Mueller-Hinton agar, Table 9, read-out: MIC) | MIC (Pseudomonas aeruginosa; Pa-26 Ps32, Mueller-Hinton agar, Table 2, read-out: MIC) | MIC (Pseudomonas aeruginosa; Pa-30 A20600, Mueller-Hinton agar, Table 9, read-out: MIC) | MIC (Pseudomonas aeruginosa; Pa-31 A20594, Mueller-Hinton agar, Table 9, read-out: MIC)
25 µg/mL: MIC (P. vulgaris; P. vulgaris A9539, Table 1) | MIC (P. vulgaris; Proteus vulgaris, P. vulgaris A9539, Table 8, read-out: MIC) | MIC (S. aureus; S. aureus A20239, Table 8, read-out: MIC) | MIC (S. aureus; S. aureus Smith A20239, Table 1) | MIC (Klebsiella sp.; Table 1, read-out: MIC) | MIC (Pseudomonas aeruginosa; Pa-6 No. 5 A15194, Mueller-Hinton agar, Table 2, read-out: MIC) | MIC (Pseudomonas aeruginosa; Pa-24 A20896, Mueller-Hinton agar, Table 2, read-out: MIC) | MIC (Pseudomonas aeruginosa; Pa-26 PS32, Mueller-Hinton agar, Table 9, read-out: MIC)
0.4 µg/mL: MIC (Pseudomonas aeruginosa; Pa-16 #130 A20718, Mueller-Hinton agar, Table 9, read-out: MIC)
> 100 µg/mL: MIC (S. aureus; S. aureus A15097, Table 8, read-out: MIC) | MIC (S. aureus; S. aureus A20701, Table 8, read-out: MIC) | MIC (S. aureus; S. aureus BX-1633 A20701, Table 1, read-out: MIC) | MIC (Pseudomonas aeruginosa; Pa-10 A20479, Mueller-Hinton agar, Table 2, read-out: MIC)
50 µg/mL: MIC (S. marcescens; S. marcescens A20019, Table 8) | MIC (S. aureus; S. aureus BX-1633 A9606, Table 8, read-out: MIC)
756%: Mean % relative activity (sulbenicillin = 100%) (Pseudomonas aeruginosa; 61 strains of P. aeruginosa, Table 2)
856%: Mean % relative activity compared with carbenicillin (Pseudomonas aeruginosa; 61 strains of P. aeruginosa, Table 9)
12.5 µg/mL: MIC (S. aureus; S. aureus A20240, Table 8, read-out: MIC) | MIC (Klebsiella sp.; Table 8, read-out: MIC) | MIC (Pseudomonas aeruginosa; Pa-6 No. 5 Levitan A15194, Mueller-Hinton agar, Table 9, read-out: MIC) | MIC (Pseudomonas aeruginosa; Pa-15 A20717, Mueller-Hinton agar, Table 9, read-out: MIC)

— patent publication US4231928A, “Antibacterial agents” (priority 1979, dated 1980)
